One assay addresses T1, HbA (Homo sapiens, UniProt P69905).
T1 construct: fresh normal adult whole blood (Hct of 30%); from tissue; host or cells: normal adult whole blood (red blood cells)
Briefly: In vitro time-dependent Hb oxygen equilibrium study using normal whole blood (tonometry). The settings on record: 2 mM, Hct 30%, 37 °C, 1-24 h. The assay is classed as cell-based. From the text: The antisickling activity of aromatic aldehydes is dependent on Schiff-base interaction between the aldehyde moiety and the Hb αVal1 amines (Schiff-base adduct) and the increase in the protein affinity for oxygen[30]–[40]. […] To overcome this pharmacologic limitation, Tucaresol and Voxelotor, two potent antisickling agents utilized a ortho-hydroxyl moiety (relative to the aldehyde group) on the benzaldehyde ring to form intramolecular hydrogen-bond interaction with the aldehyde group to form hemiacetal-like moiety, which led to significant reduction in oxidative metabolism of the aldehyde[28],[50]. […] VZHE-039, however, incorporates this ortho-hydroxyl moiety on the benzene ring, which is expected to increase its oxidative metabolic stability. This was tested by incubating 2 mM of VZHE-039 (with vanillin and TD-7 as controls) with fresh normal adult whole blood (Hct of 30%) at 37 °C as a surrogate measure of oxidative metabolism. At defined time points (1, 4, 8, 12 and 24 h), aliquot samples were drawn, and subsequently analyzed for their P50-shifts relative to the initial P50 value, using three-point tonometry. In parallel, an untreated control sample was also assessed to control for any time-dependent, but drug-independent changes in P50 values. […] These findings confirm the importance of the ortho-hydroxyl group in aromatic aldehydes in preventing or reducing enzymatic metabolism of aldehyde in RBCs.
Normal whole blood samples (hematocrit 30%) in the absence (control) or presence of 2 mM concentration VZHE-039 (solubilized in DMSO) were incubated at 37 °C for 24 h with shaking (at 140 rpm). At 1, 4, 8, 12 and 24 h time intervals, aliquots of this mixture were removed and then subjected to OEC analysis using tonometry as previously described. Vanillin and TD-7 were used as positive controls, while DMSO was tested as negative control. Briefly, the compound-treated blood samples were incubated in IL 237 tonometers (Instrumentation Laboratories, Inc. Lexington, MA) for approximately 10 min at 37 °C, and allowed to equilibrate at oxygen tensions 6, 20, and 40 mmHg. The samples were then aspirated into an ABL 700 Automated Blood Gas Analyzer (Radiometer) to determine the pH, partial pressure of CO2 (pCO2), partial pressure of oxygen (pO2), and Hb oxygen saturation values (SO2). The measured values of pO2 (mmHg) and SO2 at each pO2 value were then subjected to a non-linear regression analysis using the program Scientist (Micromath, Salt Lake City, UT) to estimate P50 as previously reported.

The subject of the next assay is SS cells. The experiment in a line: Antisickling study with SS cells under hypoxia (2.5% O2). The settings on record: 20% hematocrit, […] O2, 37 °C. It is filed as cell-based, human. The method, then: For our previously studied compounds (e.g., INN-312, TD-7, SAJ-310, INN-298) that incorporate methoxyPy substitution to vanillin analogs, we observed a significant increase in functional and biological activity as a result of increased protein interactions[31],[33],[35],[36]. We therefore expected similar effects for VZHE-039, which we tested by following VZHE-039 activity (measured by Hb adduct formation, P50-shift and RBC sickling inhibition) using SS blood. Briefly, we incubated 0.5, 1, and 2 mM concentrations of VZHE-039 with whole blood suspensions from subjects with homozygous SCD (Hct of 20%) under hypoxic conditions (2.5% O2/97.5% N2) at 37 °C for 2 h for expected peak adduct. Aliquot blood samples were drawn into a fixative (2% glutaraldehyde solution), and sickling was assessed by microscopy[31],[33],[35],[36]. Aliquot samples were also subjected to cation-exchange HPLC analyses to assess the degree of Hb modification to the high-affinity adduct form (Hb adduct formation), as well as standard O2 equilibrium curves (OEC) to assess P50-shifts using hemox analyzer[31],[33],[35],[36]. […] The improved potency of Voxelotor has been attributed to reduced binding stoichiometry, i.e. while Voxelotor binds Hb at a 1:1 ratio, VZHE-039 binds Hb at a 2:1 ratio. […] This observation, as will be discussed later is likely due to a meaningful contribution from the novel O2-independent antisickling activity as result of the strong contact with the αF-helix.
The effect of VZHE-039 on RBC sickling, Hb modification, and Hb oxygen equilibrium was studied utilizing samples from consented individuals with homozygous SCD following previous procedure. Briefly, blood suspended in Hemox buffer and supplemented with glucose and bovine serum albumin, to a final hematocrit of 20% were incubated under air in the absence or presence of 0.5 mM, 1 mM and 2 mM VZHE-039 at 37 °C for 1 h. This was followed by incubating the suspensions under hypoxic conditions (2.5% O2/97.5% N2) at 37 °C for 2 h. Aliquot samples were obtained and fixed with 2% glutaraldehyde solution without exposure to air, and then subjected to microscopic morphological analysis of bright field images (at × 40 magnification) of single layer cells on an Olympus BX40 microscope fitted with an Infinity 2 camera (Olympus), and the coupled Image Capture software. Leftover samples were washed in phosphate-buffer saline, and hemolyzed in hypotonic lysis buffer for subsequent Hb-modification and oxygen equilibrium analyses.

We go through one molecule from article PMC7679387, “VZHE-039, a novel antisickling agent that prevents erythrocyte sickling under both hypoxic and anoxic conditions” (Scientific Reports, 2020).

T1 sequence (P69905 2-142 limits assumed): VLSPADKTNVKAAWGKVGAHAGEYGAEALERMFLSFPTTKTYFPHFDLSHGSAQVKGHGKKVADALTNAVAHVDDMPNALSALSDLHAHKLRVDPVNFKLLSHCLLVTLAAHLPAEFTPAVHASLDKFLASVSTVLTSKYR
T1 sequence (P68871 2-147 partner limits assumed): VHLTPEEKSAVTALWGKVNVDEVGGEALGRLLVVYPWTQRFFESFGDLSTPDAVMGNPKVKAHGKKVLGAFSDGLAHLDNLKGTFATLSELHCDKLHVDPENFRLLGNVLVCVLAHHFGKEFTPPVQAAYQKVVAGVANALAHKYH

Regarding `O=Cc1c(O)cccc1OCc1cccc(CO)n1` [VZHE-039, 2-((6-(Hydroxymethyl)pyridin-2-yl)methoxy)-6-hydroxybenzaldehyde], the “Time course of P50-shift (in words)” value at HbA is given as “sustained P50-shift throughout the entire 24-h experimental period”. Besides, the “Sickling Inhibition” value stood at 34.5 ± 2.4% with SS cells (0.5 mM), 63.7 ± 6.9% in the assay with SS cells (1 mM) and 92.8 ± 5.5% with SS cells (2 mM). Besides, the inhibition at 500 µM in the assay with SS cells (Homo sapiens, 0.5 mM, read-out: Sickling Inhibition) is 35%. Besides, the inhibition at 1000 µM in the assay on SS cells (Homo sapiens, 1 mM, read-out: Sickling Inhibition) is 63%. Moreover, the inhibition at 2000 µM in the assay with SS cells (Homo sapiens, 2 mM, read-out: Sickling Inhibition) is 93%.
